# Test results: ChEMBL document CHEMBL4371054, “Dual inhibition of Kif15 by oxindole and quinazolinedione chemical probes” (Bioorg Med Chem Lett, 2019)
# Active and inactive are the calls of the source. The rule behind the calls is not given here.
# Key:
# [1] = biological target: T1, Kinesin-like protein KIF15 (Homo sapiens, UniProt Q9NS87); test: Inhibition of recombinant His6-tagged Kif15 (N700 residues) (unknown origin) expressed in HeLa cells assessed as reduction in Alexa-594 labelled microtubule gliding measured every 2 secs for 20 secs by epifluorescence microscopic analysis; type: cell-based
# T1 sequence (Q9NS87 whole entry): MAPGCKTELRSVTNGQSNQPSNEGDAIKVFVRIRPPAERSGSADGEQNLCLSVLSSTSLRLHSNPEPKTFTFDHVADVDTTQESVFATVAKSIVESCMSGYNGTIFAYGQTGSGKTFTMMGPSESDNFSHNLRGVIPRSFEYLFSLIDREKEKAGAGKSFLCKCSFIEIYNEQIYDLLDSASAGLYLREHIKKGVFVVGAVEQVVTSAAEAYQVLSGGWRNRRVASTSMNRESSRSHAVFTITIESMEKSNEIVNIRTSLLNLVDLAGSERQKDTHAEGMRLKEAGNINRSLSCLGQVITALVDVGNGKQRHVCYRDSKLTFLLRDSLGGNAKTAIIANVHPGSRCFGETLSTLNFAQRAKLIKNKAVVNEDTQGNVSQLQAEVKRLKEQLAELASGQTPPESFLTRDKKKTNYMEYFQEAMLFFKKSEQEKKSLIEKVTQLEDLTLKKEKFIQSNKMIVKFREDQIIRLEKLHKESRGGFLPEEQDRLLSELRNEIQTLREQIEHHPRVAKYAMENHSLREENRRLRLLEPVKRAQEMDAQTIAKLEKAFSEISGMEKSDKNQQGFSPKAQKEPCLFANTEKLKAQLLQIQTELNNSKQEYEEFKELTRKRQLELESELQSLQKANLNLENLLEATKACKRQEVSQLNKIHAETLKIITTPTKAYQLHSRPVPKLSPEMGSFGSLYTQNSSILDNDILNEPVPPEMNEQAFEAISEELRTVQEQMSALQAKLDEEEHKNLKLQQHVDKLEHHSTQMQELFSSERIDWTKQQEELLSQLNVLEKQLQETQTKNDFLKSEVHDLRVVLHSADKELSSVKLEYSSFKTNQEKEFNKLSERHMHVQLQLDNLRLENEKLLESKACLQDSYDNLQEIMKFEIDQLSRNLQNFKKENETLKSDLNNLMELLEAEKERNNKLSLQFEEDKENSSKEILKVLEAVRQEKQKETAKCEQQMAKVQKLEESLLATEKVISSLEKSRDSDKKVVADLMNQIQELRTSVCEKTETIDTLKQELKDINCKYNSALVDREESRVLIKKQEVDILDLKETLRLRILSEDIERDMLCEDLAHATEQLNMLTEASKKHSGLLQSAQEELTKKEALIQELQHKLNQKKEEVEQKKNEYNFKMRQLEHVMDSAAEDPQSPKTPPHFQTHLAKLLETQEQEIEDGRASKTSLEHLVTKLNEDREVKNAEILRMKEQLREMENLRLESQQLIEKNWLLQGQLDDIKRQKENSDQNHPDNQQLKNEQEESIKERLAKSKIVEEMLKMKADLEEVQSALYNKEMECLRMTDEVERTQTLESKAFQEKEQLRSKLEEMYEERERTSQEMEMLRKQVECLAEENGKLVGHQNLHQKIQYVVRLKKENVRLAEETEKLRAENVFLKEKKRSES
# [2] = biological target: T2, Kinesin-like protein KIF18A (Homo sapiens) (UniProt Q8NI77); test: Inhibition of Kif18A (unknown origin) assessed as reduction in Alexa-594 labelled microtubule gliding at 30 uM measured every 2 secs for 20 secs by epifluorescence microscopic analysis relative to control
# T2 sequence (whole entry): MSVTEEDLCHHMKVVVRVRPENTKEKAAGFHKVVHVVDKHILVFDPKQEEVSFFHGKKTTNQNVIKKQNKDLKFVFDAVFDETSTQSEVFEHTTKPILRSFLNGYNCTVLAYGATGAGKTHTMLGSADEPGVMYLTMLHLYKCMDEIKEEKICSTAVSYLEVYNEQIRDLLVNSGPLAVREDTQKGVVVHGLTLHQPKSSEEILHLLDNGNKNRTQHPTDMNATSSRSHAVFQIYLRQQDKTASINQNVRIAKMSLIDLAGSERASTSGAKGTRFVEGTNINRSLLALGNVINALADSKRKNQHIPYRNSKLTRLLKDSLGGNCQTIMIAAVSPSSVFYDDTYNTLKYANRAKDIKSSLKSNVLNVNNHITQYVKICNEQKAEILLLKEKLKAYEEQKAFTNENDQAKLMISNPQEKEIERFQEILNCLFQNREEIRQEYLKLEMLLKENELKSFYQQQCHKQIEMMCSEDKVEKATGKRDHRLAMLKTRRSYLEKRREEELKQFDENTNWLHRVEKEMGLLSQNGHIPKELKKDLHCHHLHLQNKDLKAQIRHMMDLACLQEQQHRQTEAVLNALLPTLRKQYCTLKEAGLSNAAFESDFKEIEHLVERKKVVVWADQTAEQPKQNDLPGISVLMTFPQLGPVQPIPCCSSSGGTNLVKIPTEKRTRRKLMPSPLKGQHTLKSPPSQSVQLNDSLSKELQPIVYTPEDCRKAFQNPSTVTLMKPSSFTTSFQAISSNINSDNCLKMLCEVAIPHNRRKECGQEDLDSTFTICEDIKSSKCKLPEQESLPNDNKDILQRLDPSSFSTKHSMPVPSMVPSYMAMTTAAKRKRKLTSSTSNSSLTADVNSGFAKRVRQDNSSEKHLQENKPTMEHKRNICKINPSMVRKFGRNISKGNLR
# [3] = biological target: T3, Kinesin-like protein KIF15 (Homo sapiens) (UniProt Q9NS87); test: Inhibition of Kif15 in TP53-deficient human RPE1 cells assessed as reduction in Kif15 level at 25 uM after 24 hrs by Western blot analysis relative to control
# T3 sequence (whole entry): T1 sequence (Q9NS87 whole entry)
# [4] = biological target: T3, Kinesin-like protein KIF15 (Homo sapiens); test: Inhibition of Kif15 in TP53-deficient human RPE1 cells assessed as effect on spindle length at 25 uM after 24 hrs by Hoechst 33342 staining based immunofluorescence microscopic analysis (reference value: 11.4 +/- 0.2 um)
smiles,measurement,setting,value
O=C1Nc2ccc(C(=O)c3ccco3)cc2/C1=C/c1cc(Cl)c(O)c(Cl)c1,IC50,[1],750 nM
same,inhibition,[2],4.9%
same,inhibition,[3],60%
same,inhibition,[4],inactive
